Measured values: US8088815B2, “Spiroindolinone pyrrolidines” (Hoffman-La Roche Inc., priority 2009, dated 2012)

Target: interaction between p53 and MDM2 proteins (Homo sapiens, UniProt Q00987)
Assay: HTRF assay of inhibition of the p53-MDM2 interaction (GST-MDM2 / biotinylated p53 peptide)
Type: binding
Conditions: recombinant GST-tagged MDM2 and biotinylated p53 peptide, bsa:0.02%

Sequence of interaction between p53 and MDM2 proteins (Q00987 whole entry): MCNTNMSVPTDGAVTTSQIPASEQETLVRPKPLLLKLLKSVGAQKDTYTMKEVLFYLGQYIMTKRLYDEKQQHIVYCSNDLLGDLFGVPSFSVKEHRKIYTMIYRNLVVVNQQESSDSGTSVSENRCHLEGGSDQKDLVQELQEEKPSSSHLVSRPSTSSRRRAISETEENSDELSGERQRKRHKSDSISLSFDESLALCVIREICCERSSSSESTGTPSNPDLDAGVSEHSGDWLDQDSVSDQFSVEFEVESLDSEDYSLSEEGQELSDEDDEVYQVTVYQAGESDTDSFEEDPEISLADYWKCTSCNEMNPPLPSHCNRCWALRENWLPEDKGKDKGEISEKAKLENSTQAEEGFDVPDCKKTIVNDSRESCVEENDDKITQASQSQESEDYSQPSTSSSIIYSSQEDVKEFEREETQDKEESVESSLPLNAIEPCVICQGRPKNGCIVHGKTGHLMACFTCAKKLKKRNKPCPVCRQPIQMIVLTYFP

IC50 [nM] | Structure (SMILES)
15 | COc1cc(C#N)ccc1NC(=O)[C@@H]1N[C@@H](CC(C)(C)C)[C@@]2(C(=O)Nc3cc(Cl)ccc32)[C@H]1c1cccc(Br)c1F (racemic) [Example 116, rac-(2′S,3′R,4′S,5′R)-4′-(3-bromo-2-fluoro-phenyl)-6-chloro-2′-(2,2-dimethyl-propyl)-2-oxo-1,2-dihydro-spiro[indole-3,3′-pyrrolidine]-5′-carboxylic acid (4-cyano-2-methoxy-phenyl)-amide]
7 | COc1cc(C(N)=O)ccc1NC(=O)[C@@H]1N[C@@H](CC(C)(C)C)[C@@]2(C(=O)Nc3cc(Cl)ccc32)[C@H]1c1cccc(Br)c1F (racemic) [Example 117, rac-(2′S,3′R,4′S,5′R)-4′-(3-bromo-2-fluoro-phenyl)-6-chloro-2′-(2,2-dimethyl-propyl)-2-oxo-1,2-dihydro-spiro[indole-3,3′-pyrrolidine]-5′-carboxylic acid (4-carbamoyl-2-methoxy-phenyl)-amide]
11 | COc1cc(C#N)ccc1NC(=O)[C@@H]1N[C@@H](CC(C)(C)C)[C@@]2(C(=O)Nc3cc(Br)ccc32)[C@H]1c1cccc(Cl)c1F (racemic) [Example 118, rac-(2′S,3′R,4′S,5′R)-6-bromo-4′-(3-chloro-2-fluoro-phenyl)-2′-(2,2-dimethyl-propyl)-2-oxo-1,2-dihydro-spiro[indole-3,3′-pyrrolidine]-5′-carboxylic acid (4-cyano-2-methoxy-phenyl)-amide]
7 | COc1cc(C(N)=O)ccc1NC(=O)[C@@H]1N[C@@H](CC(C)(C)C)[C@@]2(C(=O)Nc3cc(Br)ccc32)[C@H]1c1cccc(Cl)c1F (racemic) [Example 119, rac-(2′S,3′R,4′S,5′R)-6-bromo-4′-(3-chloro-2-fluoro-phenyl)-2′-(2,2-dimethyl-propyl)-2-oxo-1,2-dihydro-spiro[indole-3,3′-pyrrolidine]-5′-carboxylic acid (4-carbamoyl-2-methoxy-phenyl)-amide]
13 | COC(=O)c1ccc(NC(=O)[C@@H]2N[C@@H](CC(C)(C)C)[C@@]3(C(=O)Nc4cc(Br)ccc43)[C@H]2c2cccc(Cl)c2F)c(OC)c1 (racemic) [Example 122, rac-4-{[(2′S,3′R,4′S,5′R)-6-bromo-4′-(3-chloro-2-fluoro-phenyl)-2′-(2,2-dimethyl-propyl)-2-oxo-1,2-dihydro-spiro[indole-3,3′-pyrrolidine]-5′-carbonyl]-amino}-3-methoxy-benzoic acid methyl ester]
6 | COc1cc(C(=O)O)ccc1NC(=O)[C@@H]1N[C@@H](CC(C)(C)C)[C@@]2(C(=O)Nc3cc(Br)ccc32)[C@H]1c1cccc(Cl)c1F (racemic) [Example 123, rac-4-{[(2′S,3′R,4′S,5′R)-6-bromo-4′-(3-chloro-2-fluoro-phenyl)-2′-(2,2-dimethyl-propyl)-2-oxo-1,2-dihydro-spiro[indole-3,3′-pyrrolidine]-5′-carbonyl]-amino}-3-methoxy-benzoic acid]
15 | COC(=O)c1ccc(NC(=O)[C@@H]2N[C@@H](CC(C)(C)C)[C@@]3(C(=O)Nc4cc(Cl)ccc43)[C@H]2c2cc(F)cc(Cl)c2)c(OC)c1 (racemic) [Example 124, rac-4-{[(2′S,3′R,4′R,5′R)-6-chloro-4′-(3-chloro-5-fluoro-phenyl)-2′-(2,2-dimethyl-propyl)-2-oxo-1,2-dihydro-spiro[indole-3,3′-pyrrolidine]-5′-carbonyl]-amino}-3-methoxy-benzoic acid methyl ester]
7 | COc1cc(C(=O)O)ccc1NC(=O)[C@@H]1N[C@@H](CC(C)(C)C)[C@@]2(C(=O)Nc3cc(Cl)ccc32)[C@H]1c1cc(F)cc(Cl)c1 (racemic) [Example 125, rac-4-{[(2′S,3′R,4′R,5′R)-6-chloro-4′-(3-chloro-5-fluoro-phenyl)-2′-(2,2-dimethyl-propyl)-2-oxo-1,2-dihydro-spiro[indole-3,3′-pyrrolidine]-5′-carbonyl]-amino}-3-methoxy-benzoic acid]
29 | COC(=O)c1ccc(NC(=O)[C@@H]2N[C@@H](CC(C)(C)C)[C@@]3(C(=O)Nc4cc(Cl)ccc43)[C@H]2c2ccc(F)c(Cl)c2)c(OC)c1 (racemic) [Example 126, rac-4-{[(2′S,3′R,4′R,5′R)-6-chloro-4′-(3-chloro-4-fluoro-phenyl)-2′-(2,2-dimethyl-propyl)-2-oxo-1,2-dihydro-spiro[indole-3,3′-pyrrolidine]-5′-carbonyl]amino}-3-methoxy-benzoic acid methyl ester]
10 | CCOc1cc(C(=O)OC)ccc1NC(=O)[C@@H]1N[C@@H](CC(C)(C)C)[C@@]2(C(=O)Nc3cc(Cl)ccc32)[C@H]1c1cccc(Cl)c1F (racemic) [Example 129, rac-4-{[(2′S,3′R,4′S,5′R)-6-chloro-4′-(3-chloro-2-fluoro-phenyl)-2′-(2,2-dimethyl-propyl)-2-oxo-1,2-dihydro-spiro[indole-3,3′-pyrrolidine]-5′-carbonyl]-amino}-3-ethoxy-benzoic acid methyl ester]
11 | CCOc1cc(C(=O)O)ccc1NC(=O)[C@@H]1N[C@@H](CC(C)(C)C)[C@@]2(C(=O)Nc3cc(Cl)ccc32)[C@H]1c1cccc(Cl)c1F (racemic) [Example 130, rac-4-{[(2′S,3′R,4′S,5′R)-6-chloro-4′-(3-chloro-2-fluoro-phenyl)-2′-(2,2-dimethyl-propyl)-2-oxo-1,2-dihydro-spiro[indole-3,3′-pyrrolidine]-5′-carbonyl]amino}-3-ethoxy-benzoic acid]
14 | CCOc1cc(C(N)=O)ccc1NC(=O)[C@@H]1N[C@@H](CC(C)(C)C)[C@@]2(C(=O)Nc3cc(Cl)ccc32)[C@H]1c1cccc(Cl)c1F (racemic) [Example 131, rac-(2′S,3′R,4′S,5′R)-6-chloro-4′-(3-chloro-2-fluoro-phenyl)-2′-(2,2-dimethyl-propyl)-2-oxo-1,2-dihydro-spiro[indole-3,3′-pyrrolidine]-5′-carboxylic acid (4-carbamoyl-2-ethoxy-phenyl)-amide]
13 | COc1cc(S(=O)(=O)N2CCOCC2)ccc1NC(=O)[C@@H]1N[C@@H](CC(C)(C)C)[C@@]2(C(=O)Nc3cc(Cl)ccc32)[C@H]1c1cccc(Cl)c1F (racemic) [Example 138, rac-(2′S,3′R,4′S,5′R)-6-chloro-4′-(3-chloro-2-fluoro-phenyl)-2′-(2,2-dimethyl-propyl)-2-oxo-1,2-dihydro-spiro[indole-3,3′-pyrrolidine]-5′-carboxylic acid [2-methoxy-4-(morpholine-4-sulfonyl)-phenyl]-amide]
15 | COc1cc(N2CCOCC2)ccc1NC(=O)[C@@H]1N[C@@H](CC(C)(C)C)[C@@]2(C(=O)Nc3cc(Cl)ccc32)[C@H]1c1cccc(Cl)c1F (racemic) [Example 143, rac-(2′S,3′R,4′S,5′R)-6-chloro-4′-(3-chloro-2-fluoro-phenyl)-2′-(2,2-dimethyl-propyl)-2-oxo-1,2-dihydro-spiro[indole-3,3′-pyrrolidine]-5′-carboxylic acid (2-methoxy-4-morpholin-4-yl-phenyl)-amide]
19 | COc1cc(N2CC(C)OC(C)C2)ccc1NC(=O)[C@@H]1N[C@@H](CC(C)(C)C)[C@@]2(C(=O)Nc3cc(Cl)ccc32)[C@H]1c1cccc(Cl)c1F (mixture of isomers) [Example 144, rac-(2′S,3′R,4′S,5′R)-6-chloro-4′-(3-chloro-2-fluoro-phenyl)-2′-(2,2-dimethyl-propyl)-2-oxo-1,2-dihydro-spiro[indole-3,3′-pyrrolidine]-5′-carboxylic acid [4-(2,6-dimethyl-morpholin-4-yl)-2-methoxy-phenyl]-amide]
14 | CC(C)(C)C[C@@H]1N[C@@H](C(=O)Nc2ccc(C(N)=O)cc2OC(F)(F)F)[C@H](c2cccc(Cl)c2F)[C@]12C(=O)Nc1cc(Cl)ccc12 (racemic) [Example 146, rac-(2′S,3′R,4′S,5′R)-6-chloro-4′-(3-chloro-2-fluoro-phenyl)-2′-(2,2-dimethyl-propyl)-2-oxo-1,2-dihydro-spiro[indole-3,3′-pyrrolidine]-5′-carboxylic acid (4-carbamoyl-2-trifluoromethoxy-phenyl)-amide]
8 | COc1cc(-n2cnnn2)ccc1NC(=O)[C@@H]1N[C@@H](CC(C)(C)C)[C@@]2(C(=O)Nc3cc(Cl)ccc32)[C@H]1c1cccc(Cl)c1F (racemic) [Example 153, rac-(2′S,3′R,4′S,5′R)-6-chloro-4′-(3-chloro-2-fluoro-phenyl)-2′-(2,2-dimethyl-propyl)-2-oxo-1,2-dihydro-spiro[indole-3,3′-pyrrolidine]-5′-carboxylic acid (2-methoxy-4-tetrazol-1-yl-phenyl)-amide]

Structure (SMILES) | IC50 [nM]
CCCCOc1cc(C(=O)OC)ccc1NC(=O)[C@@H]1N[C@@H](CC(C)(C)C)[C@@]2(C(=O)Nc3cc(Cl)ccc32)[C@H]1c1cccc(Cl)c1F (racemic) [Example 150, rac-3-butoxy-4-{[(2′S,3′R,4′S,5′R)-6-chloro-4′-(3-chloro-2-fluoro-phenyl)-2′-(2,2-dimethyl-propyl)-2-oxo-1,2-dihydro-spiro[indole-3,3′-pyrrolidine]-5′-carbonyl]-amino}-benzoic acid methyl ester] | 15
CCCCOc1cc(C(=O)O)ccc1NC(=O)[C@@H]1N[C@@H](CC(C)(C)C)[C@@]2(C(=O)Nc3cc(Cl)ccc32)[C@H]1c1cccc(Cl)c1F (racemic) [Example 151, rac-3-butoxy-4-{[(2′S,3′R,4′S,5′R)-6-chloro-4′-(3-chloro-2-fluoro-phenyl)-2′-(2,2-dimethyl-propyl)-2-oxo-1,2-dihydro-spiro[indole-3,3′-pyrrolidine]-5′-carbonyl]amino}-benzoic acid] | 13
CCCCOc1cc(C(N)=O)ccc1NC(=O)[C@@H]1N[C@@H](CC(C)(C)C)[C@@]2(C(=O)Nc3cc(Cl)ccc32)[C@H]1c1cccc(Cl)c1F (racemic) [Example 152, rac-(2′S,3′R,4′S,5′R)-6-chloro-4′-(3-chloro-2-fluoro-phenyl)-2′-(2,2-dimethyl-propyl)-2-oxo-1,2-dihydro-spiro[indole-3,3′-pyrrolidine]-5′-carboxylic acid (2-butoxy-4-carbamoyl-phenyl)-amide] | 11
